Source: US12582689B2, “Use of terpenoids in the treatment or prevention of fibrotic diseases” (ARJIL BIOTECH HOLDING COMPANY LIMITED, priority 2020, dated 2026)

Tests used:
Type in all cases: in vivo
[1] = system: TNF-α, IL-1β, IL-6 and TGF-β levels in serum; assay: Cisplatin-induced renal injury mice: serum pro-inflammatory cytokines by ELISA; conditions: cisplatin-treated mice, extract at 1000 mg/kg, FIG. 4
Procedure: (§1) TNF-α, IL-6, and IL-1β cytokines in serum The serum concentration of the pro-inflammatory cytokines (i.e. tumor necrosis factor-α (TNF-α), interleukin-6 (IL-β), and IL-1β) in serum are assessed with relevant enzyme-linked immunosorbent assay (ELBA) kits (Biosource International Inc., Sunnyvale, CA, USA), based on the manufacturer's instructions.
(§2) Seven-to-eight-week-old male C57BL/6 mice are obtained from the BioLASCO Taiwan Co., Ltd, (Taipei, Taiwan). The animals are housed in Plexiglas cages at a constant temperature of 22±1° C. and a relative humidity of 55±5% on a 12 h dark-light cycle for at least 2 weeks before the experiment. Animals are provided food and water ad libitum. All experimental procedures are performed according to the guidelines of the institutional Animal Ethics Committee, and the protocol is approved by the Committee for the Purpose of Control and Supervision of Experiments on Animals.
Renal fibrosis is induced via multiple injections of low-dose cisplatin. Intraperitoneal injections of cisplatin (5 mg/kg/injection; P4394, Sigma-Aldrich, St Louis, MO) are performed at 0, 1, and 3 weeks, for a total of 3 injections. Mice are sacrificed at 6 weeks after the first dose of cisplatin (n=6). To analyze the effects of samples, mice are given daily intraperitoneal injections for 7 days, starting from 4 weeks after first dose of cisplatin, and sacrificed at 4 weeks (n=6). […]

lung MPO activity = assay: Bleomycin-induced pulmonary fibrosis in mice: lung myeloperoxidase (MPO) assay; conditions: BLM mice; compared with BLM group, p<0.001; FIG. 36
Procedure: (§3) Mice were divided into fifth groups with 5 animals per group according to body weight: control group, BLM group, BLM+DEX group (7.5 mg/kg), BLM+ACH dosage group (50 mg/kg), and BLM+ACM dosage group (2.5 mg/kg), BLM+ACH dosage group (50 mg/kg), and BLM+ACM dosage group (25 mg/kg) BLM+AH dosage group (50 mg/kg), and BLM+AM dosage group (25 mg/kg) BLM+BH dosage group (50 mg/kg), and BLM+BM dosage group (25 mg/kg) BLM+CH dosage group (50 mg/kg), and BLM+CM dosage group (25 mg/kg) BLM+DH dosage group (50 mg/kg), and BLM+DM dosage group (25 mg/kg) BLM+EH dosage group (50 mg/kg), and BLM+EM dosage group (25 mg/kg) BLM. Pulmonary fibrosis (PF) was established in mice via a single intratracheal administration of BLM at 7.5 mg/kg mg/kg body weight. Different doses of samples were intragastrically administered daily for 21 days after BLM injury, and DEX was used as the positive control. Control and model groups received an equal volume of vehicle (0.9% NaCl) using the same schedule and route of administration.
The pulmonary MPO activity was a reliable index for estimating the infiltration of inflammatory cells in lungs. The lung tissues were homogenized and the MPO levels were detected with the kits according to manufacturer's instruction.

[2] = system: TNF-α, IL-1β, IL-6 and TGF-β; assay: Bleomycin-induced pulmonary fibrosis in mice: pro-inflammatory cytokines by ELISA; conditions: extract 1.0 g/kg, BH and DH (50 mg/kg), p<0.001, FIG. 35
Procedure: as §3, with “administration. […]” for “administration.”
as §1, with “The” for “TNF-α, IL-6, and IL-1β cytokines in serum The”, “(IL-6),” for “(IL-β),”, “were” for “are”, “(ELISA)” for “(ELBA)”, “instructions. […]” for “instructions.”

[3] = system: CCl4-induced chronic liver fibrosis in SD rats; assay: CCl4-induced chronic liver fibrosis in rat
Procedure: Blood samples are collected at week 0, 2, 4, 6, and 8. The animals are sacrificed at the end of the 8-week for histopathological examinations. FIGS. 7A, 7B, 7C depict delta weight, liver weight, and liver/body-weight ratio, respectively.
The level of clinical biochemistry such as aspartate aminotransferase (AST), alanine aminotransferase (ALT), is evaluated to determine the enzymatic activities of the livers of the control groups and the experimental groups (shown in FIGS. 8A-8C).

[4] = system: bleomycin-induced pulmonary fibrosis in mice; assay: Bleomycin-induced pulmonary fibrosis in mice: body and lung weight, lung index, histopathology, hydroxyproline; conditions: BLM mice; for hydroxyproline (HP) content in lung tissue: extract 1.0 g/kg, compound high-dose groups (50 mg/kg), p<0.001, FIG. 34; for Pulmonary index [(lung weight/body weight)×100]: BLM group 1.60 ± 0.02
Procedure: Specific pathogen-free ICR mice (males) (body weights 18-22 g) were purchased from the BioLASCO Taiwan Co., Ltd. (Taipei, Taiwan). The animals were housed in Plexiglas cages at a constant temperature of 22±1° C. and a relative humidity of 55±5% on a 12 h dark-light cycle for at least 2 weeks before the experiment. Animals were provided food and water ad libitum. All experimental procedures were performed according to the guidelines of the Institutional Animal Ethics Committee, and the protocol was approved by the Committee for the Purpose of Control and Supervision of Experiments on Animals.
Pulmonary fibrosis (PF) was established in mice via a single intratracheal administration of BLM at 7.5 mg/kg mg/kg body weight. Different doses of samples were intragastrically administered daily for 21 days after BLM injury, and DEX was used as the positive control. Control and model groups received an equal volume of vehicle (0.9% NaCl) using the same schedule and route of administration.
Mouse body weights were recorded daily. Mice were sacrificed on the 21th day using excess chloral hydrate hydrochloride anesthesia. Blood was obtained for ELISA analyses, and whole lungs were removed and weighed. […] The pulmonary coefficient was calculated using the following equation: lung weight/body weight×100%

[5] = system: cisplatin-induced renal injury in C57BL/6 mice; assay: Mice model of cisplatin-induced renal injury: serum CRE/BUN and kidney histopathology; conditions: for renal protection: normalization of serum CRE and BUN: cisplatin-treated mice, extracts at 1000 mg/kg, compound doses not given, p<0.001 vs cisplatin group
Procedure: Determination of biochemical parameters Serum creatinine and serum urea are assessed using colorimetric kits according to manufacturer's instructions. Kits of the former markers are purchased from (HUMAN Diagnostics Worldwide, Magdeburg, Germany) with a chemical analyzer (Roche Diagnostics, Cobas Mira Plus, Rotkreuz, Switzerland).
Kidney histopathology The anterior portion of the […] from each mouse is fixed in 10% formaldehyde phosphate butler, embedded in paraffin, cut into 5 μm sections, and then treated with an hematoxylin and eosin (H&E) stain for histological examination under the light microscopy (Nikon, ECLIPSE, TS100, Tokyo, Japan). Images are captured with a digital camera (NIS-Elements D 2.30, SP4, Build 387) at an original magnification of 400×.
as §2
Renal fibrosis is induced via multiple injections of low-dose cisplatin. Intraperitoneal injections of cisplatin (5 mg/kg/injection; P4394, Sigma-Aldrich, St Louis, MO) are performed at 0, 1, and 3 weeks, for a total of 3 injections. Mice are sacrificed at 6 weeks after the first dose of cisplatin (n=6). To analyze the effects of samples, mice are given daily intraperitoneal injections for 7 days, starting from 4 weeks after first dose of cisplatin, and sacrificed at 4 weeks (n=6).

| Molecule | lung MPO activity (lung MPO activity) | TNF-α, IL-1β, IL-6 and TGF-β production after BLM challenge [2] | hydroxyproline (HP) content in lung tissue [4] | renal protection: normalization of serum CRE and BUN [5] | further results |
| --- | --- | --- | --- | --- | --- |
| C=C1C(=O)O[C@H]2/C=C(\C)CC3C=C(CC/C=C(\C)CC[C@H]12)C(=O)O3 (stereo partly shown) [AR100-DS1, Ovatodiolide] | evidently suppressed the MPO activities | improved TNF-α, IL-1β, IL-6 and TGF-β production | reduced lung HP | significant renal protection effect | serum NO, TNF-α, IL-1β and IL-6 production after cisplatin challenge [1]: improved NO, TNF-α, IL-1β, and IL-6 production; liver weight ([3]; 50 mg/kg, SD rats, 8 weeks CCl4, compared to Vehicle and Naïve group): significantly larger; liver appearance ([3]; 50 mg/kg, after 8 weeks of CCl4 induction): smooth surface without atrophy and sclerosis; serum AST and ALT level ([3]; 50 mg/kg, at W6 and W8, compared with the vehicle group): less AST and ALT increases; CCl4-induced liver injury, overall ([3]; SD rats, 8 weeks CCl4): potential to partially repair CCl4-induced liver injury; kidney histopathology (H&E): necrosis and inflammatory infiltrating cells ([5]; cisplatin-stimulated mice, extract at 1000 mg/kg, FIG. 3): significantly improved necrosis and inflammatory infiltrating cells |
| C=C(CC[C@@H](C)[C@H]1CC[C@H]2C3=C(C(=O)C[C@]12C)[C@@]1(C)CC[C@@H](O)[C@](C)(O)[C@@H]1C[C@@H]3O)[C@@H](C)C(=O)O (stereo in doubt) [AR101-DS1, RS-Antcin K] |  |  | reduced lung HP |  |  |
| C=C(CC[C@@H](C)[C@H]1CC[C@H]2C3=C(C(=O)C[C@]12C)[C@@]1(C)CC[C@@H](O)[C@](C)(O)[C@@H]1C[C@@H]3O)[C@@H](C)C(=O)O (racemic) [AR101-DS1, RS-Antcin K] | evidently suppressed the MPO activities |  |  |  |  |
| Dehydrosulphurenic acid/Sulphurenic acid [AR101-DS2] | evidently suppressed the MPO activities | improved TNF-α, IL-1β, IL-6 and TGF-β production | reduced lung HP |  | Pulmonary index [(lung weight/body weight)×100] ([4]; 25 mg/kg daily for 21 days): 1.26 ± 0.03; Pulmonary index [(lung weight/body weight)×100] ([4]; 50 mg/kg daily for 21 days, 50 mg/kg): 1.01 ± 0.02; Pulmonary index [(lung weight/body weight)×100] ([4]; 50 mg/kg daily for 21 days, listed as BH, 50 mg/kg): significant decrease |
| C=C(CC[C@@H](C(=O)O)[C@H]1CC[C@@]2(C)C3=CC[C@H]4C(C)(C)[C@@H](O)CC[C@]4(C)C3=CC[C@]12C)C(C)C [AR101-DS4, Dehydroeburicoic Acid] |  |  |  | significant renal protection effect |  |
